Test results reported in US20180339963A1, “ANTICONVULSANT CARBAMATE DERIVATIVES” (Yissum Research Development Company of the Hebrew …, priority 2017, published 2018).
pKi: −log10 of the molar value. Read-outs that look alike come from different tables or passages of the source.

How the values were obtained:
[1] = tested on: maximal electroshock seizure (MES); assay: Maximal electroshock seizure (MES) test in mice; settings: Mus musculus, ip, read-out: MES, number of mice protected/number of mice tested
[2] = target: T1, hCA I (Homo sapiens, UniProt P00915); assay: Stopped flow CO2 hydrase assay, hCA I; type: biochemical; settings: mean from 3 assays, read-out: K1, hCAI
T1 construct: made in house
T1 sequence (P00915 whole entry): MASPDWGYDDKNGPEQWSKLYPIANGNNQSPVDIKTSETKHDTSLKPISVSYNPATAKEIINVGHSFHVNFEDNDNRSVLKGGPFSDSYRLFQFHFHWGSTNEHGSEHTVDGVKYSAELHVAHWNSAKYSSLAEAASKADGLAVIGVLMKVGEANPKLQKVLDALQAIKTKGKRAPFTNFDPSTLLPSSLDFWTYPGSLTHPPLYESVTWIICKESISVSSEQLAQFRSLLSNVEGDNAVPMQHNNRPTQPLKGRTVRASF
Description: (§1) An Applied Photophysics stopped-flow instrument has been used for assaying the CA catalysed CO2 hydration activity. Phenol red (at a concentration of 0.2 mM) has been used as indicator, working at the absorbance maximum of 557 nm, with 20 mM Hepes (pH 7.5) as buffer, and 20 mM Na2SO4 (for maintaining constant the ionic strength), following the initial rates of the CA-catalyzed CO2 hydration reaction for a period of 10-100 s. The CO2 concentrations ranged from 1.7 to 17 mM for the determination of the kinetic parameters and inhibition constants. […] The uncatalyzed rates were determined in the same manner and subtracted from the total observed rates. Stock solutions of inhibitor (0.1 mM) were prepared in distilled-deionized water and dilutions up to 0.01 nM were done thereafter with the assay buffer. […] The inhibition constants were obtained by non-linear least-squares methods using PRISM 3 and the Cheng-Prusoff equation, as reported earlier and represent the mean from at least three different determinations. All CA isofoms were recombinant ones obtained in-house.

[3] = target: T2, hCA VII (Homo sapiens, UniProt P43166); assay: Stopped flow CO2 hydrase assay, hCA VII; type: biochemical; settings: mean from 3 assays, read-out: K1, hCA VII
T2 construct: made in house
T2 sequence (P43166 whole entry): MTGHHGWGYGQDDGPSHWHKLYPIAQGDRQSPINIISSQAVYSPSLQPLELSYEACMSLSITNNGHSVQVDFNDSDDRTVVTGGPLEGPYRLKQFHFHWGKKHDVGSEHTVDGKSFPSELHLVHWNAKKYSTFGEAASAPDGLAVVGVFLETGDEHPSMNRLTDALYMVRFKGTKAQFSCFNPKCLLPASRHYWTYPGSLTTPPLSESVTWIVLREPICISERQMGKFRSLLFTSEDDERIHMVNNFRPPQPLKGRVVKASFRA
Description: as §1

[4] = tested on: 6 Hz psychomotor seizure; assay: 6 Hz psychomotor seizure test in mice; settings: Mus musculus, ip, read-out: 6 Hz, number of mice protected/number of mice tested
[5] = target: T3, hCA IV (Homo sapiens, UniProt P22748); assay: Stopped flow CO2 hydrase assay, hCA IV; type: biochemical; settings: mean from 3 assays; for pKi: read-out: K1, hCA IV
T3 construct: made in house
T3 sequence (P22748 19-284): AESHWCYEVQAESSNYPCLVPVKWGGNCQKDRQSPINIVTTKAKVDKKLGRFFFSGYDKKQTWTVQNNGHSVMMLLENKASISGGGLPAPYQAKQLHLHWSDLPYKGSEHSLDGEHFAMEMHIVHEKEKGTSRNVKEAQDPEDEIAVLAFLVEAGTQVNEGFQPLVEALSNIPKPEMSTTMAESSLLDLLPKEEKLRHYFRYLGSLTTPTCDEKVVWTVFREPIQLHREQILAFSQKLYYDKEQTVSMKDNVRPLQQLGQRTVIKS
Description: as §1

[6] = target: T4, hCA II (Homo sapiens, UniProt P00918); assay: Stopped flow CO2 hydrase assay, hCA II; type: biochemical; settings: mean from 3 assays, read-out: K1, hCA II
T4 construct: made in house
Description: as §1

[7] = tested on: mice; assay: Neurotoxicity (minimal motor impairment, rotarod) in mice; settings: mice i.p.

Compound | responders at 30 mg/kg ([1]; 0.5 h) [%] | responders at 100 mg/kg ([1]; 0.5 h) [%] | responders at 300 mg/kg ([1]; 0.5 h) [%] | responders at 30 mg/kg ([1]; 2 h) [%] | responders at 100 mg/kg ([1]; 2 h) [%] | responders at 300 mg/kg ([1]; 2 h) [%] | pKi [2] | pKi [3] | responders at 30 mg/kg ([4]; 0.5 h) [%] | responders at 100 mg/kg ([4]; 0.5 h) [%] | responders at 300 mg/kg ([4]; 0.5 h) [%] | responders at 30 mg/kg ([4]; 2 h) [%] | responders at 100 mg/kg ([4]; 2 h) [%] | responders at 300 mg/kg ([4]; 2 h) [%] | melting point [°C] | pKi [5] | pKi [6] | Tox (motor impairment or sedation), number of animals affected/number of animals tested ([7]; 30 mg/kg, 0.5 h) | Tox (motor impairment or sedation), number of animals affected/number of animals tested ([7]; 30 mg/kg, 2.0 h) | Tox (motor impairment or sedation), number of animals affected/number of animals tested ([7]; 100 mg/kg, 0.5 h) | further results
CC(COC(=O)Nc1ccc(S(N)(=O)=O)cc1)CC(C)(C)C (centres unmarked) [Compound 7, 2,4,4-trimethylpentyl (4-sulfamoylphenyl)carbamate] | 0 | 0 | 0 | 0 | 25 | 50 | 7.08 | 6.15 | 25 | 25 | 100 | 0 | 50 | 75 | 199 to 201 | 5.56 | 8.30 | 0/8 | 0/8 | 0/8 | Tox (motor impairment or sedation), number of animals affected/number of animals tested ([7]; 100 mg/kg, 2.0 h): 0/8; Tox (motor impairment or sedation), number of animals affected/number of animals tested ([7]; 300 mg/kg, 0.5 h): 0/8; Tox (motor impairment or sedation), number of animals affected/number of animals tested ([7]; 300 mg/kg, 2.0 h): 0/8
CCC(CC)COC(=O)Nc1ccc(S(N)(=O)=O)cc1 [Compound 6, 2-ethylbutyl (4-sulfamoylphenyl)carbamate] | 0 | 0 | 0 | 0 | 0 | 0 | 6.77 | 7.28 | 0 | 25 | 25 | 0 | 0 | 25 | 162 to 165 | 5.77 | 8.28 | 0/8 | 0/8 | 0/8 | Tox (motor impairment or sedation), number of animals affected/number of animals tested ([7]; 100 mg/kg, 2.0 h): 0/8; Tox (motor impairment or sedation), number of animals affected/number of animals tested ([7]; 300 mg/kg, 0.5 h): 0/8; Tox (motor impairment or sedation), number of animals affected/number of animals tested ([7]; 300 mg/kg, 2.0 h): 0/8
CCCC(CCC)COC(=O)Nc1ccc(S(N)(=O)=O)cc1 [Compound 3, 2-propylpentyl (4-sulfamoylphenyl)carbamate] | 0 | 0 | 0 | 0 | 0 | 0 | 6.31 | < 5.00 | 0 | 0 | 25 | 0 | 0 | 0 | 176 to 177 | < 5.00 | 7.71 | 0/8 | 0/8 | 0/8 | Tox (motor impairment or sedation), number of animals affected/number of animals tested ([7]; 100 mg/kg, 2.0 h): 0/8; Tox (motor impairment or sedation), number of animals affected/number of animals tested ([7]; 300 mg/kg, 0.5 h): 0/8; Tox (motor impairment or sedation), number of animals affected/number of animals tested ([7]; 300 mg/kg, 2.0 h): 0/8
CC(C)C(OC(=O)Nc1ccc(S(N)(=O)=O)cc1)C(C)C [Compound 8, 2,4-dimethylpentan-3-yl (4-sulfamoylphenyl)carbamate] | 0 | 0 | 25 | 50 | 100 | 100 | 7.68 | 7.45 | 0 | 0 | 50 | 0 | 0 | 25 | 193 to 194 | 6.34 | 8.43 | 0/8 | 0/8 | 0/8 | K1, hCA IV [5]: medium potency inhibitors; Tox (motor impairment or sedation), number of animals affected/number of animals tested ([7]; 100 mg/kg, 2.0 h): 0/8; Tox (motor impairment or sedation), number of animals affected/number of animals tested ([7]; 300 mg/kg, 0.5 h): 1/8; Tox (motor impairment or sedation), number of animals affected/number of animals tested ([7]; 300 mg/kg, 2.0 h): 0/8
CC(C)(C)CCOC(=O)Nc1ccc(S(N)(=O)=O)cc1 [Compound 4, 3,3-dimethylbutyl (4-sulfamoylphenyl)carbamate] | 0 | 0 | 25 | 0 | 0 | 25 | 7.23 | 7.35 | 0 | 0 | 0 | 0 | 0 | 0 | 170 to 173 | 5.74 | 8.35 | 0/8 | 0/8 | 0/8 | Tox (motor impairment or sedation), number of animals affected/number of animals tested ([7]; 100 mg/kg, 2.0 h): 0/8; Tox (motor impairment or sedation), number of animals affected/number of animals tested ([7]; 300 mg/kg, 0.5 h): 0/8; Tox (motor impairment or sedation), number of animals affected/number of animals tested ([7]; 300 mg/kg, 2.0 h): 0/8
NS(=O)(=O)c1ccc(NC(=O)OCCc2ccccc2)cc1 [Compound 5, phenethyl (4-sulfamoylphenyl)carbamate] | 0 | 0 | 0 | 25 | 25 | 50 | 8.23 | 7.61 | 0 | 0 | 0 | 0 | 0 | 0 | 212 to 213 | 6.52 | 9.22 | 0/8 | 0/8 | 0/8 | K1, hCA IV [5]: medium potency inhibitors; Tox (motor impairment or sedation), number of animals affected/number of animals tested ([7]; 100 mg/kg, 2.0 h): 0/8; Tox (motor impairment or sedation), number of animals affected/number of animals tested ([7]; 300 mg/kg, 0.5 h): 0/8; Tox (motor impairment or sedation), number of animals affected/number of animals tested ([7]; 300 mg/kg, 2.0 h): 0/8
